In brackets after ≈: the same amount, converted by molar mass.
Key:
Assay type in all cases: cell-based
[1] = test system: A549; assay: cells; conditions: Homo sapiens; for LC50 (concentration causing 50% net cell loss): A549, read-out: LC50; for GI50 / IC50 / IC (total growth inhibition): A549, MTT; for IC50: read-out: IC50; for IC (total growth inhibition): read-out: TGI
How it was run: (§1)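 Cells were seeded at about 1 × 10^4 per well, brought to 200 μL with medium, and assessed by MTT: 4 h with MTT reagent, formazan dissolved in DMSO with Sorenson's buffer, absorbance read at 560 nm (690 nm reference). IC50 derived from percent inhibition relative to DMSO.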

[2] = test system: C6 (Rat brain glioma); assay: cells; conditions: Rattus norvegicus; for LC50 (concentration giving 50% net cell loss relative to time zero): read-out: LC50; for GI50 / IC50 / IC (total growth inhibition): C6, MTT; for IC50: read-out: IC50; for IC (total growth inhibition): read-out: TGI
How it was run: as §1

[3] = test system: HT29; assay: cells; conditions: Homo sapiens; for LC50 (concentration giving 50% net cell loss relative to time zero): HT-29, read-out: LC50; for GI50 / IC50 / IC (total growth inhibition): HT-29, HT29, MTT; for IC50: read-out: IC50; for IC (total growth inhibition): read-out: TGI
How it was run: as §1

[4] = test system: HeLa; assay: cells; conditions: Homo sapiens; for GI50 / IC50 / IC (total growth inhibition): MTT; for IC50: read-out: IC50; for IC (total growth inhibition): read-out: TGI; for LC50 (concentration causing 50% net cell loss): read-out: LC50
How it was run: as §1

[5] = test system: Hep3B; assay: cells; conditions: Homo sapiens; for GI50 / IC50 / IC (total growth inhibition): MTT; for IC50: read-out: IC50; for IC (total growth inhibition): read-out: TGI; for LC50 (concentration causing 50% net cell loss relative to time zero): read-out: LC50
How it was run: as §1

[6] = test system: MCF7; assay: cells; conditions: Homo sapiens; for LC50 (concentration causing 50% net cell loss relative to time zero): MCF7, read-out: LC50; for GI50 / IC50 / IC (total growth inhibition): MCF7, MTT; for IC50: read-out: IC50; for IC (total growth inhibition): read-out: TGI
How it was run: as §1

[7] = in vitro; conditions: human, LC50
How it was run: as §1

[8] = test system: normal FL cells; assay: cells; conditions: FL normal cells, MTT; for IC50: read-out: IC50; for IC (total growth inhibition): read-out: TGI
How it was run: as §1

[9] = LDH cytotoxic activity assay, C6; conditions: rat, C6 glioma cells; for cytotoxicity at 24 h, 25 μg/mL: C6, 25 μg/mL; for cytotoxicity at 24 h, 50 μg/mL: C6, 50 μg/mL; for cytotoxicity at 24 h, 75 μg/mL: C6, 75 μg/mL; for cytotoxicity at 24 h, 100 μg/mL: C6, 100 μg/mL
How it was run: (§2)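 About 5 × 10^3 cells per well, in triplicate, exposed to 25, 50, 75 and 100 μg/mL of test compound for 24 h at 37 °C, 5% CO2. Cells grown in DMEM or RPMI 1640 with 10% FBS. LDH activity read as absorbance at 492–630 nm.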

[10] = LDH cytotoxic activity assay, HeLa; conditions: human, HeLa cells
How it was run: as §2

[11] = LDH cytotoxic activity assay, HT29; conditions: human, HT29 cells; for cytotoxicity at 24 h, 25 μg/mL: HT29, 25 μg/mL; for cytotoxicity at 24 h, 50 μg/mL: HT29, 50 μg/mL; for cytotoxicity at 24 h, 75 μg/mL: HT29, 75 μg/mL; for cytotoxicity at 24 h, 100 μg/mL: HT29, 100 μg/mL
How it was run: as §2

[12] = test system: E. coli ATCC 25922; assay: Microdilution MIC assay; conditions: Escherichia coli, ATCC25922; E. coli ATCC 25922, 24 h at 35 °C
How it was run: (§3)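 Broth microdilution in microwells; plates incubated 24 h at 35 °C. MIC taken as the lowest concentration with no visible growth (turbidity), read by eye.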

[13] = test system: E. coli ESBL ATCC 35218; assay: Microdilution MIC assay; conditions: Escherichia coli, ATCC35218; E. coli ESBL ATCC 35218, 24 h at 35 °C
How it was run: as §3

[14] = test system: E. faecalis VRE ATCC 19433; assay: Microdilution MIC assay; conditions: Enterococcus faecalis; E. faecalis VRE ATCC 19433, 24 h at 35 °C
How it was run: as §3

[15] = test system: S. aureus ATCC 25923; assay: Microdilution MIC assay; conditions: Staphylococcus aureus, ATCC25923, 24 h, S. aureus ATCC 25923, 24 h at 35 °C; read-out: MIC
How it was run: as §3

[16] = test system: S. aureus MRSA ATCC 46300; assay: Microdilution MIC assay; conditions: Staphylococcus aureus; S. aureus MRSA ATCC 46300, 24 h at 35 °C; read-out: MIC
How it was run: as §3

[17] = test system: S. gordonii NCTC 7870; assay: Microdilution MIC assay; conditions: Streptococcus gordonii, NCTC7870; S. gordonii NCTC 7870, 24 h at 35 °C
How it was run: as §3

Which results are given for CC(=O)OC[C@H]1O[C@@H](Nc2nc(-c3ccc(C)cc3)cc(-c3cccnc3)n2)[C@H](OC(C)=O)[C@@H](OC(C)=O)[C@@H]1OC(C)=O [Compound 17, 2,3,4,6-tetra-O-acetyl-N-[4-(4-methylphenyl)-6-pyridin-3-ylpyrimidin-2-yl]-β-D-glucopyranosylamine]?
LC50 (concentration causing 50% net cell loss) [1]: > 500 µg/mL; GI50 [1]: 7.85 µg/mL (≈ 13.2 µM); IC50 [1]: > 500 µg/mL; IC (total growth inhibition) [1]: > 500 µg/mL; LC50 (concentration giving 50% net cell loss relative to time zero) [2]: > 500 µg/mL; GI50 [2]: > 500 µg/mL; IC50 [2]: > 500 µg/mL; IC (total growth inhibition) [2]: > 500 µg/mL; LC50 (concentration giving 50% net cell loss relative to time zero) [3]: > 500 µg/mL; GI50 [3]: 3.09 µg/mL (≈ 5.21 µM); IC50 [3]: > 500 µg/mL; IC (total growth inhibition) [3]: > 500 µg/mL; GI50 [4]: > 500 µg/mL; IC50 [4]: > 500 µg/mL; IC (total growth inhibition) [4]: > 500 µg/mL; LC50 (concentration causing 50% net cell loss) [4]: > 500 µg/mL; GI50 [5]: 3.86 µg/mL (≈ 6.51 µM); IC50 [5]: > 500 µg/mL; IC (total growth inhibition) [5]: > 500 µg/mL; LC50 (concentration causing 50% net cell loss relative to time zero) [5]: > 500 µg/mL; LC50 (concentration causing 50% net cell loss relative to time zero) [6]: > 500 µg/mL; GI50 [6]: 2.19 µg/mL (≈ 3.7 µM); IC50 [6]: > 500 µg/mL; IC (total growth inhibition) [6]: > 500 µg/mL; LC50 (concentration causing 50% net cell loss) [7]: > 500 µg/mL; GI50 [8]: 17.2 µg/mL (≈ 29 µM); IC50 [8]: > 500 µg/mL; IC (total growth inhibition) [8]: > 500 µg/mL; cytotoxicity at 24 h, 25 μg/mL [9]: 32%; cytotoxicity at 24 h, 50 μg/mL [9]: 44.6%; cytotoxicity at 24 h, 75 μg/mL [9]: 67.6%; cytotoxicity at 24 h, 100 μg/mL [9]: 81.8%; cytotoxicity at 24 h, 25 μg/mL [10]: 16.7%; cytotoxicity at 24 h, 50 μg/mL [10]: 23.8%; cytotoxicity at 24 h, 75 μg/mL [10]: 32.4%; cytotoxicity at 24 h, 100 μg/mL [10]: 48.6%; cytotoxicity at 24 h, 25 μg/mL [11]: 21.7%; cytotoxicity at 24 h, 50 μg/mL [11]: 35.8%; cytotoxicity at 24 h, 75 μg/mL [11]: 51%; cytotoxicity at 24 h, 100 μg/mL [11]: 75.7%; MIC [12]: > 1000 µg/mL; MIC [13]: > 1000 µg/mL; MIC [14]: 1000 µg/mL (≈ 1690 µM); MIC [15]: > 1000 µg/mL; MIC [16]: 1000 µg/mL (≈ 1690 µM); MIC [17]: > 1000 µg/mL

Which LC50 (concentration causing 50% net cell loss) [1] does the source give for CC(=O)OC[C@H]1O[C@@H](Nc2nc(-c3cccc(C)c3)cc(-c3ccccn3)n2)[C@H](OC(C)=O)[C@@H](OC(C)=O)[C@@H]1OC(C)=O [Compound 13, 2,3,4,6-tetra-O-acetyl-N-[4-(3-methylphenyl)-6-pyridin-2-ylpyrimidin-2-yl]-β-D-glucopyranosylamine] here?
The LC50 (concentration causing 50% net cell loss) was > 500 µg/mL.

What about the GI50 [1] of the same compound?
The GI50 was > 500 µg/mL.

And the IC50 [1]?
Its IC50 is > 500 µg/mL.

And the IC (total growth inhibition) [1]?
The IC (total growth inhibition) was > 500 µg/mL.

And the LC50 (concentration giving 50% net cell loss relative to time zero) [2]?
Its LC50 (concentration giving 50% net cell loss relative to time zero) is 33.9 µg/mL (≈ 57.2 µM).

What about the GI50 [2] of the same compound?
Its GI50 is 1.97 µg/mL (≈ 3.32 µM).

And the IC50 [2]?
Its IC50 is 7.55 µg/mL (≈ 12.7 µM).

And the IC (total growth inhibition) [2]?
Its IC (total growth inhibition) is 4.7 µg/mL.

What about the LC50 (concentration giving 50% net cell loss relative to time zero) [3] of the same compound?
Its LC50 (concentration giving 50% net cell loss relative to time zero) is > 500 µg/mL.

And the GI50 [3]?
Its GI50 is 2.94 µg/mL (≈ 4.96 µM).

What about the IC50 [3] of the same compound?
The IC50 was > 500 µg/mL.

And the IC (total growth inhibition) [3]?
The IC (total growth inhibition) was > 500 µg/mL.

What about the GI50 [4] of the same compound?
The GI50 was 4.48 µg/mL (≈ 7.56 µM).

What about the IC50 [4] of the same compound?
The IC50 was 60.4 µg/mL (≈ 102 µM).

What about the IC (total growth inhibition) [4] of the same compound?
The IC (total growth inhibition) was 17.3 µg/mL.

And the LC50 (concentration causing 50% net cell loss) [4]?
The LC50 (concentration causing 50% net cell loss) was 224 µg/mL (≈ 378 µM).

What about the GI50 [5] of the same compound?
The GI50 was 2.56 µg/mL (≈ 4.32 µM).

And the IC50 [5]?
The IC50 was > 500 µg/mL.

And the IC (total growth inhibition) [5]?
Its IC (total growth inhibition) is > 500 µg/mL.

And the LC50 (concentration causing 50% net cell loss relative to time zero) [5]?
Its LC50 (concentration causing 50% net cell loss relative to time zero) is > 500 µg/mL.

What about the LC50 (concentration causing 50% net cell loss relative to time zero) [6] of the same compound?
The LC50 (concentration causing 50% net cell loss relative to time zero) was > 500 µg/mL.

What about the GI50 [6] of the same compound?
Its GI50 is 1.84 µg/mL (≈ 3.1 µM).

What about the IC50 [6] of the same compound?
Its IC50 is 297 µg/mL (≈ 500 µM).

What about the IC (total growth inhibition) [6] of the same compound?
Its IC (total growth inhibition) is 397 µg/mL.

What about the LC50 (concentration causing 50% net cell loss) [7] of the same compound?
Its LC50 (concentration causing 50% net cell loss) is > 500 µg/mL.

And the GI50 [8]?
Its GI50 is 1.63 µg/mL (≈ 2.75 µM).

And the IC50 [8]?
Its IC50 is 18.2 µg/mL (≈ 30.7 µM).

And the IC (total growth inhibition) [8]?
The IC (total growth inhibition) was 19.1 µg/mL.

And the cytotoxicity at 24 h, 25 μg/mL [9]?
The cytotoxicity at 24 h, 25 μg/mL was 15%.

And the cytotoxicity at 24 h, 50 μg/mL [9]?
The cytotoxicity at 24 h, 50 μg/mL was 51.2%.

And the cytotoxicity at 24 h, 75 μg/mL [9]?
Its cytotoxicity at 24 h, 75 μg/mL is 77.1%.

What about the cytotoxicity at 24 h, 100 μg/mL [9] of the same compound?
Its cytotoxicity at 24 h, 100 μg/mL is 98.3%.

And the cytotoxicity at 24 h, 25 μg/mL [10]?
The cytotoxicity at 24 h, 25 μg/mL was 18.1%.

What about the cytotoxicity at 24 h, 50 μg/mL [10] of the same compound?
Its cytotoxicity at 24 h, 50 μg/mL is 28%.

And the cytotoxicity at 24 h, 75 μg/mL [10]?
The cytotoxicity at 24 h, 75 μg/mL was 42.8%.

And the cytotoxicity at 24 h, 100 μg/mL [10]?
The cytotoxicity at 24 h, 100 μg/mL was 50.9%.

And the cytotoxicity at 24 h, 25 μg/mL [11]?
Its cytotoxicity at 24 h, 25 μg/mL is 31.7%.

And the cytotoxicity at 24 h, 50 μg/mL [11]?
Its cytotoxicity at 24 h, 50 μg/mL is 45.5%.

What about the cytotoxicity at 24 h, 75 μg/mL [11] of the same compound?
Its cytotoxicity at 24 h, 75 μg/mL is 66.4%.

And the cytotoxicity at 24 h, 100 μg/mL [11]?
Its cytotoxicity at 24 h, 100 μg/mL is 79.2%.

What about the MIC [12] of the same compound?
The MIC was > 1000 µg/mL.

What about the MIC [13] of the same compound?
The MIC was > 1000 µg/mL.

What about the MIC [14] of the same compound?
The MIC was 1000 µg/mL (≈ 1690 µM).

And the MIC [15]?
Its MIC is 500 µg/mL (≈ 844 µM).

What about the MIC [16] of the same compound?
The MIC was 500 µg/mL (≈ 844 µM).

What about the MIC [17] of the same compound?
Its MIC is > 1000 µg/mL.

— PMC10387993, “New pyrimidine-N-β-D-glucosides: synthesis, biological evaluation, and molecular docking investigations” (Turkish Journal of Chemistry, 2023)
